# Reference: patent US7041785B1, “B1-bradykinin receptor antagonists and use thereof” (Université de Sherbrooke, priority 1996, dated 2006)
# Non-standard residues stand in square brackets, D forms with d. Residues, ends and D or L forms follow the SMILES beside them. No end group written: not given here. d2Nal = N[C@H](Cc1ccc2ccccc2c1)C(=O)O
# Tests used:
# B2 receptor [1] = biological target: T1, B2 receptor (Oryctolagus cuniculus, UniProt Q28642); conditions: vs BK; captopril 1 μmol/L; Inactive = no detectable antagonistic effect at ≦ 10 μg/ml
# T1 sequence (Q28642 1-367): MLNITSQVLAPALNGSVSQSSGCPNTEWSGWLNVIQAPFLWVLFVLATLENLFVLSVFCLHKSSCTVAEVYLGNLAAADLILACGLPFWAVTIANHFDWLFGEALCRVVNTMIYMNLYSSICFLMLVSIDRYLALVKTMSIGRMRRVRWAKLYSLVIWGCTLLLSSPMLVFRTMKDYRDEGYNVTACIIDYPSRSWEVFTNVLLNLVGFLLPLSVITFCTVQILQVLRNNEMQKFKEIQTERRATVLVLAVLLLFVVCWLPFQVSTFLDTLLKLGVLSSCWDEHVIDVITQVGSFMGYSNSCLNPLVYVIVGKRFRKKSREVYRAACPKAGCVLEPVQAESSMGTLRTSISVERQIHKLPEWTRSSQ
# human B2 receptor = biological target: T2, human B2 receptor (Homo sapiens, UniProt P30411); assay: Human umbilical vein bioassay in presence of Lys(Leu8)desArg9BK, B2 receptor; type: cell-based; conditions: vs BK, Lys(Leu8)desArg9BK 1 μmol/L present
# T2 construct: Helical strips of HUV were prepared according to Gobeil et al; from tissue; host or cells: human umbilical vein helical strips
# T2 sequence (P30411 1-391): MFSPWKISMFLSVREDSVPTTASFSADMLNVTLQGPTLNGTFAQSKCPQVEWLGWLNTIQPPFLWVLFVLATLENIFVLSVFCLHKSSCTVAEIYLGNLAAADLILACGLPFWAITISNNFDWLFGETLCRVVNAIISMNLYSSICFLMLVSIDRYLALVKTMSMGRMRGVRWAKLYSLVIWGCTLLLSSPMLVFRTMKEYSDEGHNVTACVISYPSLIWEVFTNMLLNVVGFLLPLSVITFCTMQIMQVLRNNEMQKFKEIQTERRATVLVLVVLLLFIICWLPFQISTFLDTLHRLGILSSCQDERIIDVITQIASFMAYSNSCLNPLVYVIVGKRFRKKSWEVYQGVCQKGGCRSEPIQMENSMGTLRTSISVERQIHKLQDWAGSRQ
# From the text: (§1) Tissues were taken from New Zealand white rabbits (1.5–2.5 kg) and Dunken Hartley guinea pigs (250–350 g) of either sex, killed by stunning and exsanguination. Umbilical cords were taken from healthy women 22–40 years old after spontaneous delivery at term. The rabbit jugular vein (RbJV), the guinea pig ileum (GPI), two preparations containing B2 receptors, the rabbit aorta (RbA) (B1 receptor) and the human umbilical vein (HUV), a mixed preparation containing both B1 and B2 receptors^10, were used. Helical strips of RbJV treated with 1 μmol/L of captopril to avoid peptide degradation by the angiotensin-converting enzyme (ACE), alias kininase II were prepared according to Gaudreau et al.^11 Helical strips of RbA devoid of endothelium were prepared according to Furchgott and Bhadrakom^12. Longitudinal segments of GPI were prepared with the procedure described by Rang^13. Helical strips of HUV were prepared according to Gobeil et al.^10. The tissues were suspended in 10-ml organ baths containing warm (37EC), oxygenated (95% O2–5% CO2) Krebs solution of the following composition in mmol/L; NaCl: 118.1; KCl: 4.7; CaCl26H2O: 2.5; KH2PO4: 1.2; MgSO47H2O: 1.18; NaHCO3: 25.0 and D-Glucose: 5.5. The RbA and the HUV were stretched with an initial tension of 2 g, whereas the RbJV and the GPI were loaded with 0.5 g. Changes of tension produced by the various agents were measured with Grass isometric transducers (model FT 03C, Grass Instrument Co., Quincy, Mass.). […] Before testing the drugs, the tissues were allowed to equilibrate for 60–120 min during which time the tissues were repeatedly washed and the tension readjusted every 15 min.
# (§2) At the beginning of each experiment, a submaximal dose of bradykinin (BK) (9 nmol/L), was applied repeatedly on the RbJV, the GPI or the HUV to ensure that tissues responded with stable contractions. […] A similar protocol was used for the HUV.
# (§3) Repeated applications of a singl and double concentration of BK (on RbJV, GPI and HUV) and of desArg^9BK (RbA and HUV) were made in the absence and in presence of the various peptides to evaluate their apparent affinities as antagonists, in terms of pA2 (-log10 of the molar concentration of antagonist that reduces the effect of a double concentration of agonist to that of a single one)^14. The antagonists were applied 10 min before measuring the myotropic effects of either BK (the B2 receptor agonist) or desArg^9BK (the B1 receptor agonist). […] All kinin antagonists were initially applied to tissues at concentration of 10 μg/mL to measure their potential agonistic activities (α^E) in comparison with BK (in the B2 receptor preparations) or desArg^9BK (in the B1 receptor preparations).
# B2 receptor [2] = biological target: T1, B2 receptor; assay: cell-based; conditions: residual agonistic activity at 10 μg/mL in comparison with BK
# From the text: as §1, §2, §3
# human B1 receptor = biological target: T3, human B1 receptor (Homo sapiens, UniProt P46663); assay: cell-based; conditions: for Human umbilical vein B1 receptor α^E: residual agonistic activity at 10 μg/mL
# T3 sequence (P46663 1-353): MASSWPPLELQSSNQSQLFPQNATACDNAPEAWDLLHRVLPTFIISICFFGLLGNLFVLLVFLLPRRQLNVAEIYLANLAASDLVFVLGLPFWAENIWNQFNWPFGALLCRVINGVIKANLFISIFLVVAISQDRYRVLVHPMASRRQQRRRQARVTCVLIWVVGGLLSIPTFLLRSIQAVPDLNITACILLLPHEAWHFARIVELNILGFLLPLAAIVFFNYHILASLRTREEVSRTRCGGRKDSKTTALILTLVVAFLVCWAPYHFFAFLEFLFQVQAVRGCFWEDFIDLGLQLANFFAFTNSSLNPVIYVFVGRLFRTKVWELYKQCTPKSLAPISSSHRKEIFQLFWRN
# From the text: as §1, §2, §3
# B2 receptor [3] = biological target: T4, B2 receptor (Cavia porcellus, UniProt O70526); assay: cell-based
# T4 sequence (O70526 1-372): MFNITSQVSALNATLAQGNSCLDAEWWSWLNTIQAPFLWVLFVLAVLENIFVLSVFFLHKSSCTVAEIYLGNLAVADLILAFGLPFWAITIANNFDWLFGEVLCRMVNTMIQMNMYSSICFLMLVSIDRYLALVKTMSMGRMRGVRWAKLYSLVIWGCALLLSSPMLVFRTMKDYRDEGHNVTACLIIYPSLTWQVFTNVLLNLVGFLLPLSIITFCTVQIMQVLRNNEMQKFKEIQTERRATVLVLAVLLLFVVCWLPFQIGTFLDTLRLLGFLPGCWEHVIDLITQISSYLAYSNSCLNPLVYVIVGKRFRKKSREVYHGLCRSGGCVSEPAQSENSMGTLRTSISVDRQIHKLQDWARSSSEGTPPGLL
# From the text: as §1, §2, §3
# B1 receptor = biological target: T5, B1 receptor (Oryctolagus cuniculus, UniProt P48748); assay: cell-based; conditions: for Rb.A. α^E: residual agonistic activity at 10 μg/mL in comparison with desArg9BK
# T5 sequence (P48748 1-352): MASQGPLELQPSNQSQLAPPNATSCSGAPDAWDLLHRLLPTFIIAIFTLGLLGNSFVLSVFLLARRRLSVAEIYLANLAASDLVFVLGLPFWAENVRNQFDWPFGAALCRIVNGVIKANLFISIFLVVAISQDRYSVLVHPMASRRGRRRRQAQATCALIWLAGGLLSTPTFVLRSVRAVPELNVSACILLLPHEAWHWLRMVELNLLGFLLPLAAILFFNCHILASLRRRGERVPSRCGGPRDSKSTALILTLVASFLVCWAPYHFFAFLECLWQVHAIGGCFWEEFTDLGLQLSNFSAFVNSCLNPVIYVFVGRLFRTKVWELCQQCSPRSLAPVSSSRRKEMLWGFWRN
# From the text: as §1, §2, §3
# [4] = biological target: T6, angiotensin-converting enzyme (ACE) from rabbit lungs (Oryctolagus cuniculus, UniProt P12822); conditions: after 30 min, same conditions and enzymatic dilution; cited from earlier work
# T6 sequence (P12822 34-1310): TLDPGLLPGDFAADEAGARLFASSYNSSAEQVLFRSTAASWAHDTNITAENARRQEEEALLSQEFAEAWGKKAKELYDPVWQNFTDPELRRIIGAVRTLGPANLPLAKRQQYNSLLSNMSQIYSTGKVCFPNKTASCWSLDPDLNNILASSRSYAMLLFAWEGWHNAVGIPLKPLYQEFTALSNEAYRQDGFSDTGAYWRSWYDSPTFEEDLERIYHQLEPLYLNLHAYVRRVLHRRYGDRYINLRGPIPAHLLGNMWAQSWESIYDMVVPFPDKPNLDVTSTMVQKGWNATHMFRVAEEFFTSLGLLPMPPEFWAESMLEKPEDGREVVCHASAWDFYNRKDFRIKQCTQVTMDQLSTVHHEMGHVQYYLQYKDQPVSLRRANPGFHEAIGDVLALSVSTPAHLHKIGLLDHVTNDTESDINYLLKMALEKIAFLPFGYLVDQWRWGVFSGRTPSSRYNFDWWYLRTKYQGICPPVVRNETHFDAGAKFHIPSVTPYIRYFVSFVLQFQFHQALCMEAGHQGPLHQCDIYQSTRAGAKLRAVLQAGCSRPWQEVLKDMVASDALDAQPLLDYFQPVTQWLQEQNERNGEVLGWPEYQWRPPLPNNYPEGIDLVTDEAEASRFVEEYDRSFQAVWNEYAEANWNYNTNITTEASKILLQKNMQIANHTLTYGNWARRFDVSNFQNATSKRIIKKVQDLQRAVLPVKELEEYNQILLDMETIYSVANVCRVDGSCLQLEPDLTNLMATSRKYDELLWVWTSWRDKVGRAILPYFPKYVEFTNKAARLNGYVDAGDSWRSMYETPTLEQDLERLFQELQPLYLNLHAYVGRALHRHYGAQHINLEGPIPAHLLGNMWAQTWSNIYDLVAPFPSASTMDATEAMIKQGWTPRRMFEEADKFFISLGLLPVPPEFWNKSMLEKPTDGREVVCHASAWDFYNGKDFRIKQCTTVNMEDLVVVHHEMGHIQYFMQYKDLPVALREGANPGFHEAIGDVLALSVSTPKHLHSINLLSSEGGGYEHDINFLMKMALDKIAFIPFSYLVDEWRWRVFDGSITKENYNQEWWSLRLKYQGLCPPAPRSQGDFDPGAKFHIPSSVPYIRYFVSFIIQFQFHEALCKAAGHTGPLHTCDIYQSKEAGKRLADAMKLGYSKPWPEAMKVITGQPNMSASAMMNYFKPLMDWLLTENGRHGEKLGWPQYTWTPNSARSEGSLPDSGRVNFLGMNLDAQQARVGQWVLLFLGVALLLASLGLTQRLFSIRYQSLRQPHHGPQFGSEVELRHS
Molecule,Rb.J.V. pA2 (B2 receptor [1]),Human umbilical vein B2 receptor pA2 (human B2 receptor),Rb.J.V. α^E (B2 receptor [2]),Human umbilical vein B1 receptor α^E (human B1 receptor),"G.P.I. pA2 (B2 receptor [3]; vs BK, Inactive = no detectable antagonistic effect at ≦ 10 μg/ml, F.ag. full agonist, P.ag. partial agonist)",Rb.A. α^E (B1 receptor),"Human umbilical vein B1 receptor pA2 (human B1 receptor; vs desArg9BK, HOE140 400 nmol/L present)",G.P.I. α^E (B2 receptor [3]; residual agonistic activity at 10 μg/mL in comparison with BK),"Rb.A. pA2 (B1 receptor; apparent affinity as antagonist vs desArg9BK, antagonist applied 10 min before, Inactive = no detectable antagonistic effect at ≦ 10 μg/ml)",Metabolism of naturally-occurring kinins by ACE [4]
"CC[C@H](C)[C@H](NC(=O)[C@@H](Cc1ccc2ccccc2c1)NC(=O)[C@H](CO)NC(=O)[C@H](Cc1ccccc1)NC(=O)CNC(=O)[C@@H]1CCCN1C(=O)[C@@H]1CCCN1C(=O)[C@H](CCCNC(=N)N)NC(=O)[C@H](CCCCN)NC(C)=O)C(=O)O [Compound 19, AcLys(D-βNal^7, Ile^8)desArg^9BK] (Ac-KRPPGFS[d2Nal]I-OH; C-terminus assumed)",Inactive,Inactive,0.09,0,P.ag.,0,,,,
"D-Arg(Hyp^3, D-Hyp^7(trans thiophenyl), Oic^8)desArg^9BK [Compound 34, reference compound]",7.52 ± 0.05,5.12 ± 0.20,0,0,,0,8.55 ± 0.09,0,8.27 ± 0.14,
RPPGFSPFR [BK],,,,,,,,,,fully metabolised
